Experiments:
Tubulin = target: T1, Tubulin (Sus scrofa, UniProt P02550+P02554); test: Evaluation of the inhibition of tubulin polymerization (turbidimetry at 350 nm); assay type: biochemical; settings: concentration that inhibits the rate of polymerization by 50%; pig brain tubulin 10 μM
T1 construct: Tubulin is purified from pig brain according to published methods; from tissue; host or cells: pig brain
Experimental: Briefly, the brains are ground and centrifuged in an extraction buffer. The tubulin contained in the supernatant of the extract undergoes two successive cycles of polymerization at 37° C. and depolymerization at 4° C., before being separated from the MAPs (Microtubule Associated Proteins) by chromatography on a phosphocellulose P11 column (Whatman). […] It is stored in a buffer known as RB/2 30% glycerol, the composition of which is 50 mM MES-NaOH [2-(N-morpholino)ethanesulphonic acid], pH 6.8; 0.25 mM MgCl2; 0.5 mM EGTA; 30% glycerol (v/v), 0.2 mM GTP (guanosine-5′-triphosphate).
The polymerization of tubulin to microtubules is monitored by turbidimetry as follows: the tubulin is adjusted to a concentration of 10 μM (1 mg/ml) in RB/2 30% glycerol buffer to which 1 mM GTP and 6 mM MgCl2 are added. […] The increase in the turbidity of the solution is monitored at 350 nm.
The products are dissolved at 10 mM in DMSO and added at variable concentrations (0.5 to 10 μM) to the tubulin solution before polymerization.

[1] = system: HDMEC cells (Human Dermal Microvascular Endothelial Cells); test: Detachment of endothelial cells in vitro (test for determining the inhibition of vascularization); assay type: cell-based; settings: Homo sapiens, Endothelial cell, 2 h, two hours of treatment, relative to control (untreated cells)
Source text: A test for determining the detachment of the endothelial cells was developed in order to select the products with regard to their “in vitro” activity. This test for determining the detachment of endothelial cells is characterized in that the endothelial cells, inoculated into plates whose bottom is covered with a binder preferably chosen from gelatin, fibronectin and vitronectin, after culturing, are supplemented with a medium containing the test compound, and the cells are then labelled with a fluorescent substance, the cells which have become detached are removed by washing and the fluorescence of the remaining cells is counted in a fluorimeter.
This test consists in measuring the detachment of endothelial cells cultured on substrata based on a binder preferably chosen from fibronectin, vitronectin and gelatin. Preferably, a day after the inoculation of the cells in plates containing, for example, 96 wells, the culture medium is replaced with a medium containing the test compound in the absence of serum. The same preparation is prepared six times at three different concentrations ([…]) and the control six times without addition of antivascular product. After two hours of treatment with the test substance, the cells are labelled with calcein-AM (1.6 μg/ml) in culture medium supplemented with 0.1% BSA. The cells that have become detached are removed by washing with the culture medium containing 0.1% bovine serum albumin; 100 μl of medium are added to each well. The fluorescence of the remaining cells is counted in a fluorimeter. The data obtained are expressed relative to the control (untreated cells).
The evaluation of the detachment of the endothelial cells in vitro is determined in the following manner. HDMEC cells (Human Dermal Microvascular Endothelial Cells, Promocell, c-122102) are cultured in an ECGM-MV medium that contains 5% foetal calf serum, growth factors (EGF 10 ng/ml, hydrocortisone 1 μg/ml, 0.4% growth supplement with heparin) and antibiotics (amphotericin 50 ng/ml, gentamycin 50 μg/ml). For the detachment test, the HDMECs are inoculated at a rate of 5 000 cells in clear-bottomed 96-well plates (Costar) precoated with fibronectin (10 μg/ml), vitronectin (1 μg/ml) or gelatin. Twenty-four hours later, the culture medium is replaced with ECGM-MV 0.1% BSA medium containing the products indicated. The concentrations tested are 0.1–0.3 and 1 μM for each product. After two hours of treatment, the cells are labelled for one hour with calcein (1.6 μg/ml, Molecular Probes) in ECGM-MV 0.1% BSA medium. The detached cells are then removed by washing with ECGM-MV 0.1% BSA medium; 100 μl of medium is added to each well. The fluorescence of the cells that remain attached to the substratum of the well is counted using a fluorimeter, Spectrafluor Plus (Tecan excitation 485 nm, and emission 535 nm). The data are the mean of six different samples and are expressed as the percentage of the control (untreated cells).
A cell detachment effect of greater than or equal to 15% is considered as significant.

T1 sequence (P02550 whole entry): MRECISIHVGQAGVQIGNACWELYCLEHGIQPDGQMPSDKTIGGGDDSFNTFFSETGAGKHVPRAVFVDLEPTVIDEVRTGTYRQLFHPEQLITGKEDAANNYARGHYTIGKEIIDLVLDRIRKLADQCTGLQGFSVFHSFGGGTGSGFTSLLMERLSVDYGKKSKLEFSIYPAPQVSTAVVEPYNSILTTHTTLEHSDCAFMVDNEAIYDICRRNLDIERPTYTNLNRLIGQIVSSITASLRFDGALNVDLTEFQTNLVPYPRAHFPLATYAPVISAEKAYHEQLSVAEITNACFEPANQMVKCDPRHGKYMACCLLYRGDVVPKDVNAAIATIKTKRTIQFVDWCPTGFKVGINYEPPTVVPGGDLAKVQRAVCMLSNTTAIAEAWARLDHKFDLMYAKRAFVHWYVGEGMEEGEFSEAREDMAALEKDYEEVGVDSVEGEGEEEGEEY
T1 sequence (P02554 whole entry): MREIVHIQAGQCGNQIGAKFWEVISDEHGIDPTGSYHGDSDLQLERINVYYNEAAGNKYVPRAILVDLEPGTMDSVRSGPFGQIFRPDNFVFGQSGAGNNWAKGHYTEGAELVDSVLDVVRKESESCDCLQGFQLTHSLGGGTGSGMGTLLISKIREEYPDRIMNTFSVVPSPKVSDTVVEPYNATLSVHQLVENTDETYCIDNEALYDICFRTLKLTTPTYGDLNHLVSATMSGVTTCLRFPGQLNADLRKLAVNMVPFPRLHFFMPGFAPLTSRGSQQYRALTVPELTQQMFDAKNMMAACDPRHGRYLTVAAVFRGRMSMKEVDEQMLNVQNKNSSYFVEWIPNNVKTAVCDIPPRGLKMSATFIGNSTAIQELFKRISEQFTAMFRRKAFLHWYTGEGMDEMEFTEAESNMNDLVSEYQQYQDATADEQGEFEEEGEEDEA

Row | Compound | IC50 (Tubulin) [nM] | inhibition at 1 µM [1] [%]
1 | CCOC(=O)c1n[nH]c2c1C=CC(c1ccccc1)(c1ccc(F)cc1)C2 (racemic) [Example 10-3A, ethyl (R,S)-6-(4-fluorophenyl)-6-phenyl-6,7-dihydro-1H-indazole-3-carboxylate] | 1200 | 16
2 | ON=C(c1n[nH]c2c1C=CC(c1ccccc1)(c1ccccc1)C2)C1CC1 (single isomer, unassigned) [Example 6-1A, cyclopropyl(6,6-diphenyl-6,7-dihydro-1H-indazol-3-yl)methanone oxime] | 600 | 34
3 | CCOC(=O)c1n[nH]c2c1C=CC(c1ccccc1)(c1ccc(F)cc1)C2 (single isomer, unassigned) [Example 10-3B, ethyl 6-(4-fluorophenyl)-6-phenyl-6,7-dihydro-1H-indazole-3-carboxylate] | 1000 | 19
4 | ON=C(c1n[nH]c2c1C=CC(c1ccccc1)(c1ccc(F)cc1)C2)C1CC1 (single isomer, unassigned) [Example 10-5A] | 1000 | 25
5 | CCOC(=O)c1[nH]nc2c1C=CC(c1ccccc1)(c1ccccc1)C2 [Example 1, Ethyl 6,6-diphenyl-6,7-dihydro-2H-indazole-3-carboxylate] | 1500 | 20
6 | O=C(NC1CC1)c1n[nH]c2c1C=CC(c1ccccc1)(c1ccccc1)C2 [Example 3-1, N-(cyclopropyl)-6,6-diphenyl-6,7-dihydro-1H-indazole-3-carboxamide] | 2500 | 20
7 | O=C(c1n[nH]c2c1C=CC(c1ccccc1)(c1ccccc1)C2)C1CC1 [Example 5-1, Cyclopropyl(6,6-diphenyl-6,7-dihydro-1H-indazol-3-yl)methanone] | 800 | 29
8 | O=C(c1n[nH]c2c1C=CC(c1ccccc1)(c1ccccc1)C2)C1CCC1 [Example 5-2, Cyclobutyl(6,6-diphenyl-6,7-dihydro-1H-indazol-3-yl)methanone] | 1100 | 19
9 | O=C(c1cc[nH]c1)c1n[nH]c2c1C=CC(c1ccccc1)(c1ccccc1)C2 [Example 5-4, (6,6-Diphenyl-6,7-dihydro-1H-indazol-3-yl)-(1H-pyrrol-3-yl)methanone] | 7000 | –
10 | ON=C(c1n[nH]c2c1C=CC(c1ccccc1)(c1ccccc1)C2)C1CCC1 [Example 6-2A, cyclobutyl(6,6-diphenyl-6,7-dihydro-1H-indazol-3-yl)methanone oxime] | 1000 | 18
11 | CON=C(c1[nH]nc2c1C=CC(c1ccccc1)(c1ccccc1)C2)C1CC1 [Example 6-3A, cyclopropyl(6,6-diphenyl-6,7-dihydro-2H-indazol-3-yl)methanone O-methyloxime] | 800 | 26
12 | C=CCO/N=C(/c1n[nH]c2c1C=CC(c1ccccc1)(c1ccccc1)C2)C1CC1 [Example 6-6B, cyclopropyl(6,6-diphenyl-6,7-dihydro-1H-indazol-3-yl)methanone O-allyloxime] | 1200 | –
13 | COCCO/N=C(\c1n[nH]c2c1C=CC(c1ccccc1)(c1ccccc1)C2)C1CC1 [Example 6-7A, cyclopropyl(6,6-diphenyl-6,7-dihydro-1H-indazol-3-yl)methanone O-(2-methoxyethyl)oxime] | 1800 | –
14 | COCCO/N=C(/c1n[nH]c2c1C=CC(c1ccccc1)(c1ccccc1)C2)C1CC1 [Example 6-7B, cyclopropyl(6,6-diphenyl-6,7-dihydro-1H-indazol-3-yl)methanone O-(2-methoxyethyl)oxime] | 6000 | –
15 | C1=CC(c2ccccc2)(c2ccccc2)Cc2[nH]nc(/C(=N\OCc3ccccc3)C3CC3)c21 [Example 6-8A, cyclopropyl(6,6-diphenyl-6,7-dihydro-1H-indazol-3-yl)methanone O-benzyloxime] | 1300 | –
16 | C1=CC(c2ccccc2)(c2ccccc2)Cc2[nH]nc(/C(=N/OCc3ccccc3)C3CC3)c21 [Example 6-8B, cyclopropyl(6,6-diphenyl-6,7-dihydro-1H-indazol-3-yl)methanone O-benzyloxime] | 10000 | –
17 | O=[N+]([O-])c1ccc(CO/N=C(\c2n[nH]c3c2C=CC(c2ccccc2)(c2ccccc2)C3)C2CC2)cc1 [Example 6-9A, cyclopropyl(6,6-diphenyl-6,7-dihydro-1H-indazol-3-yl)methanone O-(4-nitrobenzyl)oxime] | 1500 | –
18 | O=[N+]([O-])c1ccc(CO/N=C(/c2n[nH]c3c2C=CC(c2ccccc2)(c2ccccc2)C3)C2CC2)cc1 [Example 6-9B, cyclopropyl(6,6-diphenyl-6,7-dihydro-1H-indazol-3-yl)methanone O-(4-nitrobenzyl)oxime] | 2500 | –
19 | CN(C)CCO/N=C(\c1n[nH]c2c1C=CC(c1ccccc1)(c1ccccc1)C2)C1CC1 [Example 6-10A, cyclopropyl(6,6-diphenyl-6,7-dihydro-1H-indazol-3-yl)methanone O-(2-dimethylaminoethyl)oxime] | 4500 | –
20 | CN(C)CCO/N=C(/c1n[nH]c2c1C=CC(c1ccccc1)(c1ccccc1)C2)C1CC1 [Example 6-10B, cyclopropyl(6,6-diphenyl-6,7-dihydro-1H-indazol-3-yl)methanone O-(2-dimethylaminoethyl)oxime] | 12000 | –
21 | FCCO/N=C(\c1n[nH]c2c1C=CC(c1ccccc1)(c1ccccc1)C2)C1CC1 [Example 6-11A, cyclopropyl(6,6-diphenyl-6,7-dihydro-1H-indazol-3-yl)methanone O-(2-fluoroethyl)oxime] | 1000 | –
22 | FCCO/N=C(/c1n[nH]c2c1C=CC(c1ccccc1)(c1ccccc1)C2)C1CC1 [Example 6-11B, cyclopropyl(6,6-diphenyl-6,7-dihydro-1H-indazol-3-yl)methanone O-(2-fluoroethyl)oxime] | 1300 | –
23 | Cc1ccc(S(=O)(=O)n2nc(N)c3c2CC(c2ccccc2)(c2ccccc2)C=C3)cc1 [Example 7-1, 6,6-Diphenyl-1-(4-toluenesulphonyl)-6,7-dihydro-1H-indazol-3-ylamine] | 6000 | –
24 | C1=CC(c2ccccc2)(c2ccccc2)Cc2[nH]nc(-c3ccccc3)c21 [Example 8-2, 3,6,6-Triphenyl-6,7-dihydro-1H-indazole] | 1000 | –
25 | C1=CC(c2ccccc2)(c2ccccc2)Cc2[nH]nc(-c3cccnc3)c21 [Example 8-3, 6,6-Diphenyl-3-pyrid-3-yl-6,7-dihydro-1H-indazole] | 6000 | –
26 | C1=CC(c2ccccc2)(c2ccccc2)Cc2[nH]nc(-c3ccsc3)c21 [Example 8-4, 6,6-Diphenyl-3-thiophen-3-yl-6,7-dihydro-1H-indazole] | 1200 | –
27 | CCOC(=O)c1n[nH]c2c1C=CC(c1ccc(OC)cc1)(c1ccc(OC)cc1)C2 [Example 10-1, Ethyl 6,6-bis(4-methoxyphenyl)-6,7-dihydro-1H-indazole-3-carboxylate] | 15000 to 20000 | –
28 | CCOC(=O)c1n[nH]c2c1C=CC(c1ccc(F)cc1)(c1ccc(F)cc1)C2 [Example 10-6, Ethyl 6,6-bis(4-fluorophenyl)-6,7-dihydro-1H-indazole-3-carboxylate] | 1000 | –
29 | CCOC(=O)c1[nH]cc2c1C=CC(c1ccccc1)(c1ccccc1)C2 [Example 11, Ethyl 5,5-diphenyl-4,5-dihydro-2H-isoindole-1-carboxylate] | 6500 | –
30 | CCOC(=O)c1n[nH]c2c1C=CC(c1ccccc1)(c1ccccc1)C2C (stereo not shown) [Example 13, Ethyl 7-methyl-6,6-diphenyl-6,7-dihydro-1H-indazole-3-carboxylate] | 1500 | –
